Consider one substance from patent US20250195603A1, “COMPOSITION FOR PREVENTING OR TREATING DENTAL CARIES” (HYSENSBIO CO., LTD., priority 2022, published 2025).

Holding throughout (format): cell-based
The test system of experiment [1] is human dental pulp cells. The experiment is described as follows: Mineralization ability of human dental pulp cells (alizarin red S). The following applies: LPS alone. The procedure: To this end, human dental pulp cells were inoculated in each 6-well dish at 1×10^5 cells/well and then cultured in a differentiation medium containing ascorbic acid (50 μg/mL) and beta-glycerophosphate (10 mM) for 7, 14, and 21 days from the next day.
(§1) All experiments using human pulp cells were approved by the Institutional Review Board (IRB; S-D20140007) of the Seoul National University Dental Hospital and conducted in accordance with the guidelines and regulations of the institution. The third molars (wisdom teeth) were extracted from patients who signed the consent forms at the Seoul National University Dental Hospital, and pulp cells were isolated using a previously reported method (Choung et al., 2016). The teeth were cut open, the internal pulp was separated using forceps, and the pulp tissue was finely minced into 60-mm diameter cell culture dishes. The finely minced pulp tissue was then covered with a covered glass and cultured in a cell culture medium to isolate human pulp cells. […]
To compare the amount of mineralized matrix, the samples were fixed overnight at 4° C. with 4% paraformaldehyde (PFA), then treated with 40 mM alizarin red S (pH 4.2) at 25° C. for 30 minutes. After that, 0.5 mL of sodium dodecyl sulfate dissolved in 0.5 N hydrochloric acid was applied, and the samples were placed on a shaker for 30 minutes, and the absorbance was measured at 405 nm.

The subject of a further experiment is human pulp cells. The experiment is described as follows: Wound-healing model of human pulp cells (scratch). To be noted: LPS only, 24 hours after scratch. On the procedure:
Human pulp cells were inoculated in a 6-well plate at 1×10^5 cells/well, and the next day, the central portion was scratched with the tip of a 200 μL pipette, and the rate of cell growth was compared 24 hours later.
as §1, with “a cover” for “a covered”
Cell photographs were taken using an optical microscope using a 10× objective lens, and the photographs were analyzed using the ImageJ software program.

Experiment [2] deals with human dental pulp cells. The experiment is described as follows: Viability of human dental pulp cells in inflammatory environment (MTT). The following applies: 10 μg/mL LPS alone, vs negative control. On the procedure:
To measure the cell viability, human dental pulp cells were inoculated in a 96-well plate at 5×10^3 cells/well and treated with 150 μL of a 3-(4,5-dimethyl-2-thiazolyl)-2,5-diphenyl-tetrazolium bromide (MTT, Medifab Co. Ltd.) solution for about two hours on days 1, 3, and 5, and the absorbance of the solution dissolved in DMSO was measured at 570 nm.
as §1, with “a cover” for “a covered”

The test system of experiment [3] is human dental pulp cells. The experiment is described as follows: Expression of inflammatory factors (RT-PCR) in LPS-treated human dental pulp cells. The following applies: 10 μg/mL LPS only. The procedure: To confirm the preventive and therapeutic effects of a pharmaceutical composition (KH002) in stage 4 dental caries in which inflammation occurred after cells are affected by dental caries, human dental pulp cells were treated with lipopolysaccharide (LPS) and the pharmaceutical composition (KH002), and the expression of inflammatory factors was compared.
as §1, with “dishes.” for “dishes. The finely minced pulp tissue was then covered with a covered glass and cultured in a cell culture medium to isolate human pulp cells.”
A reverse transcription polymerase chain reaction (RT-PCR) was performed to compare the expression of inflammatory factors, and the ratio of the expression level of each factor to the expression level of glyceraldehyde 3-phosphate dehydrogenase (GAPDH) was confirmed for quantitative comparison (FIG. 3).

Take lipopolysaccharide [LPS]: the “size of the mineral nodules” value in the experiment on human dental pulp cells [1] (day 21, compared to control group) was “significantly decreased”. Moreover, the “amount of mineralized matrix” value in the experiment with human dental pulp cells [1] (days 7, 14, and 21, compared to control group) is “significantly decreased”. For the same substance, in the experiment with human pulp cells, the “wound healing ability as a ratio to the control group” value is reported as “about 50 % of the control group”. In addition, the “viability of dental pulp cells” value with human dental pulp cells [2] was “significant decrease”. Further, in the experiment with human dental pulp cells [3], the “expression of inflammatory factors TNF-α, IL-1α, IL-1β, IL-6, CXCL10, iNOS, and COX2 (ratio to GAPDH)” value is given as “significantly increased”.
